In PMC7377239, “Cardiovascular Effects of Polychlorinated Biphenyls and Their Major Metabolites” (Environmental Health Perspectives, 2020):
Structures can show the parent of a compound that is named as a salt. Where two headings read alike, the source gives them in different places.

Tests used:
[1] = test system: iCell endothelial cells (human iPSC-derived ECs); assay: High-content imaging cytotoxicity in iCell endothelial cells, 24 h; format: cell-based; settings: for viability at 0.01 µM / activity at 0.01 µM / viability at 0.1 µM / activity at 0.1 µM / viability at 1 µM / activity at 1 µM / viability at 10 µM / activity at 10 µM / viability at 100 µM / activity at 100 µM / minimal effective concentration: Homo sapiens, Endothelial cell, 24 hr; for viability at 0.1 µM / activity at 0.1 µM: 0.10 µM
In short: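 Readouts were vehicle-normalised and fitted to a four-parameter logistic model. POD was set at one SD beyond 0.5% DMSO control means, and 100 µM was assigned when no response was seen. Cells were monolayers of iCell endothelial cells imaged after 24 h compound exposure using nuclear, mitochondrial and calcein dyes.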

HUVECs = assay: Tube formation (tubulogenesis) assay in HUVECs, 18 h; format: cell-based, human; settings: Homo sapiens, HUVEC, 18 h; for activity at 0.1 µM: 0.10 µM
In short: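 HUVECs (passage 1–5) seeded on reduced-growth-factor basement membrane and exposed to compounds overnight at 37°C, 5% CO2, in 2× maintenance medium with 12.5 ng/mL VEGF; 0.5% DMSO vehicle. Calcein AM-stained tube networks imaged and analysed; vehicle-normalized readouts fit to four-parameter logistic, POD set at one SD of vehicle means.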

[2] = iPSC-EC, 0.00 µM control = 100.00, read-out: endo.cyto.24hr
[3] = iPSC-EC, 0.00 µM control = 100.00, read-out: endo.mito.24hr
[4] = iPSC-EC, 0.00 µM control = 100.00, read-out: endo.mitoint.24hr
[5] = iPSC-EC, 0.00 µM control = 100.00, read-out: endo.nma.24hr
[6] = iPSC-EC, 0.00 µM control = 100.00, read-out: endo.tc.24hrs
[7] = HUVECs, 0.00 µM = 100.00, read-out: huvec.mtl.18hr
[8] = HUVECs, 0.00 µM = 100.00, read-out: huvec.tlps.18hr
[9] = HUVECs, 0.00 µM = 100.00, read-out: huvec.tta.18hr
[10] = HUVECs, 0.00 µM = 100.00, read-out: huvec.ttl.18hr
[11] = endothelial cells (endo), cyto, read-out: POD endo.cyto.24hr
[12] = endothelial cells (endo), mito, read-out: POD endo.mito.24hr
[13] = endothelial cells (endo), mitoint, read-out: POD endo.mitoint.24hr
[14] = endothelial cells (endo), nma, read-out: POD endo.nma.24hr
[15] = endothelial cells (endo), tc, read-out: POD endo.tc.24hr
[16] = tube formation mtl, read-out: POD huvec.mtl.18hr
[17] = tube formation tlps, read-out: POD huvec.tlps.18hr
[18] = tube formation tta, read-out: POD huvec.tta.18hr
[19] = tube formation ttl, read-out: POD huvec.ttl.18hr

With Oc1ccc(-c2ccc(Cl)cc2)cc1 [4'-OH PCB3] the viability at 0.01 µM [1, 2] was 96.3%, the activity at 0.01 µM [1, 3] was 96.6% and the activity at 0.01 µM [1, 4] was 113%. For the same compound, the activity at 0.01 µM [1, 5] was 100%, the viability at 0.01 µM [1, 6] was 96.3% and the viability at 0.1 µM [1, 2] was 95%. The activity at 0.1 µM [1, 3] was 95.4%, the activity at 0.1 µM [1, 4] was 105% and the activity at 0.1 µM [1, 5] was 98.9%. For the same compound, the viability at 0.1 µM [1, 6] was 95%, the viability at 1 µM [1, 2] was 99.8% and the activity at 1 µM [1, 3] was 99.9%. It also gave an activity at 1 µM [1, 4] of 108%, an activity at 1 µM [1, 5] of 97.4% and a viability at 1 µM [1, 6] of 99.8%. The viability at 10 µM [1, 2] was 104%, the activity at 10 µM [1, 3] was 105% and the activity at 10 µM [1, 4] was 119%. For the same compound, the activity at 10 µM [1, 5] was 96%, the viability at 10 µM [1, 6] was 104% and the viability at 100 µM [1, 2] was 39.7%. For the same compound, the activity at 100 µM [1, 3] was 40.3%, the activity at 100 µM [1, 4] was 91.2% and the activity at 100 µM [1, 5] was 101%. It also gave a viability at 100 µM [1, 6] of 69.7%, a minimal effective concentration ([1]; iPSC-EC, top concentration 100.00 µM, read-out: endo.cyto.24hr POD) of 41.1 µM and a minimal effective concentration ([1]; iPSC-EC, top concentration 100.00 µM, read-out: endo.mito.24hr POD) of 41.1 µM. For the same compound, the minimal effective concentration ([1]; iPSC-EC, top concentration 100.00 µM, read-out: endo.mitoint.24hr POD) was 100 µM, the minimal effective concentration ([1]; iPSC-EC, top concentration 100.00 µM, read-out: endo.nma.24hr POD) was 100 µM and the minimal effective concentration ([1]; iPSC-EC, top concentration 100.00 µM, read-out: endo.tc.24hrs POD) was 52 µM. The activity at 0.01 µM (HUVECs; [7]) was 101%, the activity at 0.01 µM (HUVECs; [8]) was 106% and the activity at 0.01 µM (HUVECs; [9]) was 113%. For the same compound, the activity at 0.01 µM (HUVECs; [10]) was 119%, the activity at 0.1 µM (HUVECs; [7]) was 94% and the activity at 0.1 µM (HUVECs; [8]) was 89.7%. The activity at 0.1 µM (HUVECs; [9]) was 88.3%, the activity at 0.1 µM (HUVECs; [10]) was 93.3% and the activity at 1 µM (HUVECs; [7]) was 93.7%. It also gave an activity at 1 µM (HUVECs; [8]) of 76.2%, an activity at 1 µM (HUVECs; [9]) of 98.5% and an activity at 1 µM (HUVECs; [10]) of 102%. For the same compound, the activity at 10 µM (HUVECs; [7]) was 72.2%, the activity at 10 µM (HUVECs; [8]) was 66.1% and the activity at 10 µM (HUVECs; [9]) was 68.8%. For the same compound, the activity at 10 µM (HUVECs; [10]) was 71.7%, the activity at 100 µM (HUVECs; [7]) was 76.3% and the activity at 100 µM (HUVECs; [8]) was 34%. It also gave an activity at 100 µM (HUVECs; [9]) of 11.6%, an activity at 100 µM (HUVECs; [10]) of 8.84% and a minimal effective concentration (HUVECs; HUVECs, top concentration 100.00 µM, read-out: huvec.mtl.18hr POD) of 1.21 µM. For the same compound, the minimal effective concentration (HUVECs; HUVECs, top concentration 100.00 µM, read-out: huvec.tlps.18hr POD) was 0.51 µM, the minimal effective concentration (HUVECs; HUVECs, top concentration 100.00 µM, read-out: huvec.tta.18hr POD) was 5.36 µM and the minimal effective concentration (HUVECs; HUVECs, top concentration 100.00 µM, read-out: huvec.ttl.18hr POD) was 5.16 µM.

Work on Clc1cccc(-c2cccc(Cl)c2)c1 [PCB 11, 3,3′-Dichlorobiphenyl] yielded a minimal effective concentration [1, 11] of 100 µM, a minimal effective concentration [1, 12] of 100 µM and a minimal effective concentration [1, 13] of 100 µM. The minimal effective concentration [1, 14] was 100 µM, the minimal effective concentration [1, 15] was 100 µM and the “effect on cell viability in iPSC-ECs” value ([1]; iPSC-ECs, 0.01-100 μM) was “did not affect cell viability”. For the same compound, the minimal effective concentration (HUVECs; [16]) was 100 µM, the minimal effective concentration (HUVECs; [17]) was 41.8 µM and the minimal effective concentration (HUVECs; [18]) was 100 µM. It also gave a minimal effective concentration (HUVECs; [19]) of 100 µM.

O=S(=O)(O)Oc1cccc(-c2ccc(Cl)cc2)c1 [3'-PCB 3 sulfate] gave a minimal effective concentration [1, 11] of 100 µM, a minimal effective concentration [1, 12] of 100 µM and a minimal effective concentration [1, 13] of 100 µM. It also gave a minimal effective concentration [1, 14] of 100 µM, a minimal effective concentration [1, 15] of 100 µM and a minimal effective concentration (HUVECs; [16]) of 15.5 µM. The minimal effective concentration (HUVECs; [17]) was 100 µM, the minimal effective concentration (HUVECs; [18]) was 100 µM and the minimal effective concentration (HUVECs; [19]) was 100 µM.
